One assay concerns the target T1, human FLT4 (Homo sapiens, UniProt P35916).
T1 construct: a construct expressing the human FLT4 (789-1207) with an amino terminal GST tag; host or cells: Sf9 insect cells (baculovirus)
Nature of the assay: FLT4 kinase assay (DELFIA enzyme inhibition). The format is biochemical. To be noted: read-out: FLT4 IC50. As to the method:
A GST-kinase fusion protein of 70 KDa was produced using sf9 baculovirus expression system, with a construct expressing the human FLT4 (789-1207) with an amino terminal GST tag. The protein was purified by affinity chromatography using glutathione-agarose followed by separation on a gel filtration column.
FLT4 enzyme activity is determined using a Dissociation Enhanced Lanthanide Fluorescent Immunoassay (DELFIA) with a peptide substrate derived from the MET (Tyr 1253) peptide […] with a core sequence […].
The amount of phosphorylated peptide produced is detected by means of a phospho-Tyrosine specific Europium-labelled antibody using Time-Resolved Fluorescence at Excitation 360-35 nm and Emission 620-35 nm.
Assay reactions are set up in a 25 uL final volume on a 96 well plate. […] The reaction is allowed to proceed for 30 minutes at room temperature before stopping with 100 uL Stop solution comprising of 100 mM EDTA, 1×BSA blocker in TBS (Perbio) and 0.05% Surfact-Amps20 (Perbio).
The stopped reaction is transferred to a black 96-well Neutravidin-coated plate (Perbio) and incubated for 30 minutes to capture the biotinylated peptide substrate. After washing wells 3 times with 200 uL TBS/T buffer, Anti-Phospho-Tyr-100 antibody labelled with Eu—N1 (Perkin Elmer AD0159) is added to all wells for 60 minutes at room temperature. After a repeat washing step, DELFIA Enhancement solution (Perkin Elmer) is added to all wells for 5 minutes and the fluorescence measured on a plate reader Analyst HT (Molecular Devices).
The % inhibition of the activity is calculated and plotted in order to determine the concentration of test compound required to inhibit 50% of the enzyme activity (IC50).

A further assay deals with T2, human Aurora A (Homo sapiens, UniProt O14965).
T2 construct: Histidine tag (N); host or cells: Sf9 insect cells (baculovirus)
T2 sequence (O14965 1-403): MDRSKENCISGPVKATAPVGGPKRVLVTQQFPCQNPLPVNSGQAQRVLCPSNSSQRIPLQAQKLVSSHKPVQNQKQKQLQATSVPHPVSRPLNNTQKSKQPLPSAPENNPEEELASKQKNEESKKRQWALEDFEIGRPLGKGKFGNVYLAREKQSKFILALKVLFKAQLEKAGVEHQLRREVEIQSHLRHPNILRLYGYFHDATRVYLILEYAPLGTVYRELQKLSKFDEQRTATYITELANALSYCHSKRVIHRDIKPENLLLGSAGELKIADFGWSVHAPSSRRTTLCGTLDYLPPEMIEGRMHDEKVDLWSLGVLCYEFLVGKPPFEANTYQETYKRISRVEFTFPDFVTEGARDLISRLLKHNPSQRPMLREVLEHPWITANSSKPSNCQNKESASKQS
Nature of the assay: Aurora A kinase assay (DELFIA enzyme inhibition). The format is biochemical. To be noted: read-out: Aurora A IC50. On the procedure: The protein was purified by one-step affinity chromatography using nickel-agarose […]
Assay reactions are set up in a 25 uL final volume on a 96 well plate. […] The reaction is allowed to proceed for 30 minutes at room temperature before stopping with 100 μL Stop solution comprising of 100 mM EDTA, 1×BSA blocker in TBS (Perbio) and 0.05% Surfact-Amps20 (Perbio).
The stopped reaction is transferred to a black 96-well Neutravidin-coated plate (Perbio) and incubated for 30 minutes to capture the biotinylated peptide substrate. […] After repeating the washing step, the plate is further incubated for one hour with Europium-labelled anti-rabbit antibody (Perkin Elmer AD0105). The wash step is repeated for a final time before DELFIA Enhancement solution (Perkin Elmer) is added to all wells for 5 minutes and the fluorescence measured on a plate reader Analyst HT (Molecular Devices).

26 compounds from patent US9187465B2, “Oxazole tyrosine kinase inhibitors” (Sareum Limited, priority 2007, dated 2015) can be followed below.

The term IC50 denotes the midpoint of a concentration-inhibition curve.

T1 sequence (P35916 789-1207): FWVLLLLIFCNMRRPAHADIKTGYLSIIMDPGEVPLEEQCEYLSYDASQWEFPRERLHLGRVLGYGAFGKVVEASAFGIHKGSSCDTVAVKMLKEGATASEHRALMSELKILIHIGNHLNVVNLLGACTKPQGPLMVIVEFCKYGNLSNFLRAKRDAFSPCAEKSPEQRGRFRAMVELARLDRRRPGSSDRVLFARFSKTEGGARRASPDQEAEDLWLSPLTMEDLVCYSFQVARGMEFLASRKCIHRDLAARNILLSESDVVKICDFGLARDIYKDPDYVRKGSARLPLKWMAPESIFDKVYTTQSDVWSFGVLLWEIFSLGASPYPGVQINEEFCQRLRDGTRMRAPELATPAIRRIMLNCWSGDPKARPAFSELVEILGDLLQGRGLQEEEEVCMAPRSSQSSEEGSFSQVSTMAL

In the case of `NC(=O)c1nc(-c2c(F)cccc2F)oc1Nc1ccc(C(=O)N2CCOCC2)cc1` [Example U-2, 2-(2,6-difluorophenyl)-5-(4-(morpholine-4-carbonyl)phenylamino)oxazole-4-carboxamide], the IC50 on human FLT4 and at human Aurora A was below 10 µM throughout.

With `COc1ccc(-c2nc(-c3ccccc3Cl)[nH]c2C(N)=O)cc1` [Example A-2, 2-(2-chlorophenyl)-4-(4-methoxyphenyl)-1H-imidazole-5-carboxamide], the half-inhibitory concentration (IC50) on human FLT4 and on human Aurora A was below 100 µM throughout.

Take `NC(=O)c1nc(-c2c(F)cccc2F)oc1-c1ccc(OCCNCCO)cc1` [Example S-21, 2-(2,6-difluorophenyl)-5-(4-(2-(2-hydroxyethylamino)ethoxy)phenyl)oxazole-4-carboxamide]: the IC50 at human FLT4 and on human Aurora A was below 10 µM throughout.

On to `NC(=O)c1nc(-c2c(F)cccc2F)oc1-c1ccc(NCCN2CCCCC2)cc1` [Example F-32, 2-(2,6-difluorophenyl)-5-(4-(2-(piperidin-1-yl)ethylamino)phenyl)oxazole-4-carboxamide], for which the half-inhibitory concentration (IC50) on human FLT4 and on human Aurora A was below 10 µM in each case.

For `NC(=O)c1nc(-c2c(F)cccc2F)oc1Nc1ccc(C(=O)NCC2CCNCC2)cc1` [Example Q-50, 5-(4-((piperidin-4-ylmethyl)carbamoyl)phenylamino)-2-(2,6-difluorophenyl)oxazole-4-carboxamide], the IC50 at human FLT4 and at human Aurora A was below 10 µM in each case.

As for `CNCCOc1ccc(-c2oc(-c3c(F)cccc3F)nc2C(N)=O)cc1` [Example S-20, 2-(2,6-difluorophenyl)-5-(4-(2-(methylamino)ethoxy)phenyl)oxazole-4-carboxamide], the half-inhibitory concentration (IC50) on human FLT4 and on human Aurora A was below 10 µM throughout.

Take `COc1ccc(-c2nc(-c3ccc(C)cc3)[nH]c2C(N)=O)cc1` [Example A-8, 4-(4-methoxyphenyl)-2-p-tolyl-1H-imidazole-5-carboxamide]: the IC50 on human FLT4 and at human Aurora A was below 100 µM throughout.

`COc1ccc(-c2oc(-c3cc[nH]n3)nc2C(N)=O)cc1` [Example N-1, 5-(4-methoxyphenyl)-2-(1H-pyrazol-5-yl)oxazole-4-carboxamide]: the IC50 on human FLT4 and on human Aurora A was below 10 µM throughout.

Take `NC(=O)c1nc(-c2ccncc2)oc1-c1ccc(N2CCNCC2)cc1` [Example M-14, 5-(4-(piperazin-1-yl)phenyl)-2-(pyridin-4-yl)oxazole-4-carboxamide]: the IC50 on human FLT4 and on human Aurora A was below 10 µM throughout.

On to `COc1ccc(Nc2oc(-c3c(F)cccc3F)nc2C(N)=O)cc1OC` [Example Q-39, 2-(2,6-difluorophenyl)-5-(3,4-dimethoxyphenylamino)oxazole-4-carboxamide], for which the IC50 on human FLT4 is below 10 µM; at human Aurora A it was below 100 µM.

As to `NC(=O)c1nc(-c2c(F)cccc2F)oc1Nc1ccc(C(=O)N[C@@H]2CCCNC2)cc1` [Example Q-53, (R)-2-(2,6-difluorophenyl)-5-(4-(piperidin-3-ylcarbamoyl)phenylamino)oxazole-4-carboxamide], the half-inhibitory concentration (IC50) on human FLT4 and at human Aurora A was below 10 µM in each case.

Take `NCCCNC(=O)c1ccc(Nc2oc(-c3c(F)cccc3F)nc2C(N)=O)cc1` [Example Q-51, 5-(4-((3-aminopropyl)carbamoyl)phenylamino)-2-(2,6-difluorophenyl)oxazole-4-carboxamide]: the IC50 on human FLT4 and on human Aurora A was below 10 µM in each case.

Regarding `NC(=O)c1nc(-c2cccnc2)oc1-c1ccc(N2CCNCC2)cc1` [Example M-13, 5-(4-(piperazin-1-yl)phenyl)-2-(pyridin-3-yl)oxazole-4-carboxamide], the half-maximal inhibitory concentration (IC50) on human FLT4 and on human Aurora A was below 10 µM each time.

As to `NC(=O)c1nc(-c2c(F)cccc2F)oc1Nc1ccc(C(=O)NC[C@@H]2CCCNC2)cc1` [Example Q-55, (R)-5-(4-((piperidin-3-ylmethyl)carbamoyl)phenylamino)-2-(2,6-difluorophenyl)oxazole-4-carboxamide], the half-inhibitory concentration (IC50) on human FLT4 and at human Aurora A was below 10 µM each time.

On to `Cc1ccccc1Nc1nc(C(N)=O)c(-c2ccc(N3CCNCC3)cc2)o1` [Example R-10, 2-(o-toluidino)-5-(4-(piperazin-1-yl)phenyl)oxazole-4-carboxamide], for which the 50% inhibitory concentration (IC50) at human FLT4 and at human Aurora A was below 10 µM in each case.

Consider `COc1ccc(-c2nc(-c3c[nH]c4ccccc34)[nH]c2C(N)=O)cc1` [Example A-13, 2-(1H-indol-3-yl)-4-(4-methoxyphenyl)-1H-imidazole-5-carboxamide], for which the IC50 at human FLT4 was below 10 µM; at human Aurora A, below 100 µM.

Consider `NC(=O)c1nc(-c2c(F)cccc2F)oc1-c1ccsc1` [Example F-5, 2-(2,6-difluorophenyl)-5-(thiophen-3-yl)oxazole-4-carboxamide], for which the 50% inhibitory concentration (IC50) is below 10 µM on human FLT4 and below 100 µM on human Aurora A.

Regarding `NC(=O)c1nc(-c2ccc3[nH]ccc3c2)oc1-c1ccc(N2CCNCC2)cc1` [Example M-15, 2-(1H-indol-5-yl)-5-(4-(piperazin-1-yl)phenyl)oxazole-4-carboxamide], the concentration for half-maximal inhibition (IC50) at human FLT4 and on human Aurora A was below 10 µM throughout.

As for `COc1ccc(-c2nc(-c3c(F)cccc3Cl)[nH]c2C(N)=O)cc1` [Example A-15, 2-(2-chloro-6-fluorophenyl)-4-(4-methoxyphenyl)-1H-imidazole-5-carboxamide], the IC50 at human FLT4 and on human Aurora A was below 100 µM each time.

As for `COc1ccc(-c2oc(-c3cccc(C)c3)nc2C(N)=O)cc1` [Example N-10, 5-(4-methoxyphenyl)-2-m-tolyloxazole-4-carboxamide], the concentration for half-maximal inhibition (IC50) at human FLT4 and at human Aurora A was below 100 µM each time.

With `NC(=O)c1nc(-c2ccc3cc[nH]c3c2)oc1-c1ccc(N2CCNCC2)cc1` [Example M-16, 2-(1H-indol-6-yl)-5-(4-(piperazin-1-yl)phenyl)oxazole-4-carboxamide], the half-inhibitory concentration (IC50) on human FLT4 and at human Aurora A was below 10 µM each time.

Turning to `NC(=O)c1nc(-c2c(F)cccc2F)oc1Nc1ccc(C(=O)N[C@H]2CCCNC2)cc1` [Example Q-54, (S)-2-(2,6-difluorophenyl)-5-(4-(piperidin-3-ylcarbamoyl)phenylamino)oxazole-4-carboxamide], the IC50 at human FLT4 and on human Aurora A was below 10 µM throughout.

As for `COc1ccc(-c2nc(-c3cn(C)c4ccccc34)[nH]c2C(N)=O)cc1` [Example B-4, 4-(4-methoxyphenyl)-2-(1-methyl-1H-indol-3-yl)-1H-imidazole-5-carboxamide], the IC50 at human FLT4 and at human Aurora A was below 100 µM each time.

On to `NC(=O)c1nc(-c2c(F)cccc2F)oc1Nc1cccnc1` [Example Q-45, 2-(2,6-difluorophenyl)-5-(pyridin-3-ylamino)oxazole-4-carboxamide], for which the concentration for half-maximal inhibition (IC50) on human FLT4 and at human Aurora A was below 10 µM throughout.

On to `NC(=O)c1nc(-c2c(F)cccc2F)oc1Nc1ccc(C(=O)N[C@H]2CCNC2)cc1` [Example U-7, (S)-2-(2,6-difluorophenyl)-5-(4-(pyrrolidin-3-ylcarbamoyl)phenylamino)oxazole-4-carboxamide], for which the IC50 on human FLT4 and on human Aurora A was below 10 µM throughout.

Turning to `NCCNC(=O)c1ccc(Nc2oc(-c3c(F)cccc3F)nc2C(N)=O)cc1` [Example Q-52, 5-(4-((2-aminoethyl)carbamoyl)phenylamino)-2-(2,6-difluorophenyl)oxazole-4-carboxamide], the IC50 on human FLT4 and on human Aurora A was below 10 µM in each case.
